According to ChEMBL document CHEMBL2440076, “New triarylpyrazoles as broad-spectrum anticancer agents: design, synthesis, and biological evaluation” (Eur J Med Chem, 2013):

How the values were obtained:
Assay type in all cases: functional
NCI-H460 = experiment: Growth inhibition of human NCI-H460 cells assessed as cell growth at 10^-7 M after 48 hrs by sulforhodamine B assay; conditions: NCI-H460, 48 h, read-out: Activity
SK-OV-3 = experiment: Growth inhibition of human SKOV3 cells assessed as cell growth at 10^-7 M after 48 hrs by sulforhodamine B assay; conditions: SK-OV-3, 48 h, read-out: Activity
ACHN [1] = experiment: Growth inhibition of human ACHN cells assessed as cell growth at 10^-4 M after 48 hrs by sulforhodamine B assay; conditions: read-out: Activity
UACC-257 = experiment: Growth inhibition of human UACC257 cells assessed as cell growth at 10^-8 M after 48 hrs by sulforhodamine B assay; conditions: UACC-257, 48 h, read-out: Activity
ACHN [2] = experiment: Growth inhibition of human ACHN cells assessed as cell growth at 10^-8 M after 48 hrs by sulforhodamine B assay; conditions: read-out: Activity
PC-3 [3] = experiment: Growth inhibition of human PC3 cells assessed as cell growth at 10^-4 M after 48 hrs by sulforhodamine B assay; conditions: PC-3, 48 h, read-out: Activity
SW-620 [4] = experiment: Growth inhibition of human SW620 cells assessed as cell growth at 10^-6 M after 48 hrs by sulforhodamine B assay; conditions: SW-620, 48 h, read-out: Activity
MDA-MB-468 = experiment: Growth inhibition of human MDA-MB-468 cells assessed as cell growth at 10^-4 M after 48 hrs by sulforhodamine B assay; conditions: MDA-MB-468, 48 h, read-out: Activity
SNB-75 [5] = experiment: Growth inhibition of human SNB75 cells assessed as cell growth at 10^-6 M after 48 hrs by sulforhodamine B assay; conditions: SNB-75, 48 h, read-out: Activity
PC-3 [6] = experiment: Growth inhibition of human PC3 cells assessed as cell growth at 10^-7 M after 48 hrs by sulforhodamine B assay; conditions: PC-3, 48 h, read-out: Activity
SNB-75 [7] = experiment: Growth inhibition of human SNB75 cells assessed as cell growth at 10^-7 M after 48 hrs by sulforhodamine B assay; conditions: SNB-75, 48 h, read-out: Activity
RXF 393 = experiment: Growth inhibition of human RXF393 cells assessed as cell growth at 10^-7 M after 48 hrs by sulforhodamine B assay; conditions: RXF 393, 48 h, read-out: Activity
LOX IMVI [8] = experiment: Growth inhibition of human LOXIMVI cells assessed as cell growth at 10^-4 M after 48 hrs by sulforhodamine B assay; conditions: read-out: Activity
MDA-MB-231 = experiment: Growth inhibition of human MDA-MB-231 cells assessed as cell growth at 10^-4 M after 48 hrs by sulforhodamine B assay; conditions: MDA-MB-231, 48 h, read-out: Activity
NCI-H226 = experiment: Growth inhibition of human NCI-H226 cells assessed as cell growth at 10^-8 M after 48 hrs by sulforhodamine B assay; conditions: NCI-H226, 48 h, read-out: Activity
NCI-H322M = experiment: Growth inhibition of human NCI-H322M cells assessed as cell growth at 10^-8 M after 48 hrs by sulforhodamine B assay; conditions: read-out: Activity
SF-539 = experiment: Growth inhibition of human SF539 cells assessed as cell growth at 10^-5 M after 48 hrs by sulforhodamine B assay; conditions: SF-539, 48 h, read-out: Activity
SW-620 [9] = experiment: Growth inhibition of human SW620 cells assessed as cell growth at 10^-4 M after 48 hrs by sulforhodamine B assay; conditions: SW-620, 48 h, read-out: Activity
SK-MEL-5 [10] = experiment: Growth inhibition of human SK-MEL-5 cells assessed as cell growth at 10^-4 M after 48 hrs by sulforhodamine B assay; conditions: SK-MEL-5, 48 h, read-out: Activity
MDA-MB-435 = experiment: Growth inhibition of human MDA-MB-435 cells assessed as cell growth at 10^-7 M after 48 hrs by sulforhodamine B assay; conditions: MDA-MB-435, 48 h, read-out: Activity
SK-MEL-5 [11] = experiment: Growth inhibition of human SK-MEL-5 cells assessed as cell growth at 10^-7 M after 48 hrs by sulforhodamine B assay; conditions: SK-MEL-5, 48 h, read-out: Activity
IGROV-1 = experiment: Growth inhibition of human IGROV1 cells assessed as cell growth at 10^-5 M after 48 hrs by sulforhodamine B assay; conditions: IGROV-1, 48 h, read-out: Activity
CAKI-1 = experiment: Growth inhibition of human CAKI-1 cells assessed as cell growth at 10^-6 M after 48 hrs by sulforhodamine B assay; conditions: CAKI-1, 48 h, read-out: Activity
SW-620 [12] = experiment: Growth inhibition of human SW620 cells assessed as cell growth at 10^-8 M after 48 hrs by sulforhodamine B assay; conditions: SW-620, 48 h, read-out: Activity
SF-295 = experiment: Growth inhibition of human SF295 cells assessed as cell growth at 10^-8 M after 48 hrs by sulforhodamine B assay; conditions: SF-295, 48 h, read-out: Activity
SK-MEL-28 [13] = experiment: Growth inhibition of human SK-MEL-28 cells assessed as cell growth at 10^-4 M after 48 hrs by sulforhodamine B assay; conditions: SK-MEL-28, 48 h, read-out: Activity
NCI-H522 = experiment: Growth inhibition of human NCI-H522 cells assessed as cell growth at 10^-5 M after 48 hrs by sulforhodamine B assay; conditions: NCI-H522, 48 h, read-out: Activity
SK-MEL-28 [14] = experiment: Growth inhibition of human SK-MEL-28 cells assessed as cell growth at 10^-5 M after 48 hrs by sulforhodamine B assay; conditions: SK-MEL-28, 48 h, read-out: Activity
A498 = experiment: Growth inhibition of human A498 cells assessed as cell growth at 10^-5 M after 48 hrs by sulforhodamine B assay; conditions: A498, 48 h, read-out: Activity
KM12 = experiment: Growth inhibition of human KM12 cells assessed as cell growth at 10^-4 M after 48 hrs by sulforhodamine B assay; conditions: KM12, 48 h, read-out: Activity
LOX IMVI [15] = experiment: Growth inhibition of human LOXIMVI cells assessed as cell growth at 10^-6 M after 48 hrs by sulforhodamine B assay; conditions: read-out: Activity
PC-3 [16] = experiment: Growth inhibition of human PC3 cells assessed as cell growth at 10^-6 M after 48 hrs by sulforhodamine B assay; conditions: PC-3, 48 h, read-out: Activity
SK-MEL-5 [17] = experiment: Growth inhibition of human SK-MEL-5 cells assessed as cell growth at 10^-6 M after 48 hrs by sulforhodamine B assay; conditions: SK-MEL-5, 48 h, read-out: Activity
HCT-15 = experiment: Growth inhibition of human HCT15 cells assessed as cell growth at 10^-8 M after 48 hrs by sulforhodamine B assay; conditions: HCT-15, 48 h, read-out: Activity
SK-MEL-2 = experiment: Growth inhibition of human SK-MEL-2 cells assessed as cell growth at 10^-5 M after 48 hrs by sulforhodamine B assay; conditions: SK-MEL-2, 48 h, read-out: Activity
RPMI-8226 = experiment: Growth inhibition of human RPMI8226 cells assessed as cell growth at 10^-4 M after 48 hrs by sulforhodamine B assay; conditions: RPMI-8226, 48 h, read-out: Activity
NCI-H23 = experiment: Growth inhibition of human NCI-H23 cells assessed as cell growth at 10^-7 M after 48 hrs by sulforhodamine B assay; conditions: NCI-H23, 48 h, read-out: Activity

SMILES | growth at 0.1 µM (NCI-H460) [%] | growth at 0.1 µM (SK-OV-3) [%] | growth at 100 µM (ACHN [1]) [%] | growth at 0.01 µM (UACC-257) [%] | growth at 0.01 µM (ACHN [2]) [%] | growth at 100 µM (PC-3 [3]) [%] | growth at 1 µM (SW-620 [4]) [%] | growth at 100 µM (MDA-MB-468) [%] | growth at 1 µM (SNB-75 [5]) [%] | growth at 0.1 µM (PC-3 [6]) [%] | growth at 0.1 µM (SNB-75 [7]) [%] | growth at 0.1 µM (RXF 393) [%] | growth at 100 µM (LOX IMVI [8]) [%] | growth at 100 µM (MDA-MB-231) [%] | growth at 0.01 µM (NCI-H226) [%] | growth at 0.01 µM (NCI-H322M) [%] | growth at 10 µM (SF-539) [%] | growth at 100 µM (SW-620 [9]) [%] | growth at 100 µM (SK-MEL-5 [10]) [%] | growth at 0.1 µM (MDA-MB-435) [%] | also measured
COc1cc(-c2nn(-c3cccc(NC(=O)c4ccc(N5CCOCC5)c(C(F)(F)F)c4)c3)cc2-c2ccncc2)ccc1Cl | 88 | 80 | 2 | 95 | 102 | -5 | 36 | -53 | -2 | 73 | 75 | 78 | -34 | -30 | 102 | 103 | -54 | 10 | -85 | -4 | growth at 0.1 µM (SK-MEL-5 [11]): 53%; growth at 10 µM (IGROV-1): -7%; growth at 1 µM (CAKI-1): 21%; growth at 0.01 µM (SW-620 [12]): 99%; growth at 0.01 µM (SF-295): 89%; growth at 100 µM (SK-MEL-28 [13]): 13%; growth at 10 µM (NCI-H522): -14%; growth at 10 µM (SK-MEL-28 [14]): 14%; growth at 10 µM (A498): -32%; growth at 100 µM (KM12): -12%; growth at 1 µM (LOX IMVI [15]): 29%; growth at 1 µM (PC-3 [16]): 15%; growth at 1 µM (SK-MEL-5 [17]): -11%; growth at 0.01 µM (HCT-15): 98%; growth at 10 µM (SK-MEL-2): -2%; growth at 100 µM (RPMI-8226): 6%; growth at 0.1 µM (NCI-H23): 92%
COc1cc(-c2nn(-c3cccc(NC(=O)c4ccccc4)c3)cc2-c2ccncc2)ccc1Cl | 99 | 95 | 27 | 93 | 101 | 3 | 35 | -27 | 39 | 86 | 86 | 113 | 7 | -42 | 97 | 98 | -25 | 14 | -85 | 80 | growth at 0.1 µM (SK-MEL-5 [11]): 91%; growth at 10 µM (IGROV-1): 28%; growth at 1 µM (CAKI-1): 52%; growth at 0.01 µM (SW-620 [12]): 96%; growth at 0.01 µM (SF-295): 93%; growth at 100 µM (SK-MEL-28 [13]): 26%; growth at 10 µM (NCI-H522): 4%; growth at 10 µM (SK-MEL-28 [14]): 43%; growth at 10 µM (A498): -19%; growth at 100 µM (KM12): 6%; growth at 1 µM (LOX IMVI [15]): 36%; growth at 1 µM (PC-3 [16]): 29%; growth at 1 µM (SK-MEL-5 [17]): 10%; growth at 0.01 µM (HCT-15): 97%; growth at 10 µM (SK-MEL-2): -10%; growth at 100 µM (RPMI-8226): 21%; growth at 0.1 µM (NCI-H23): 91%
